From patent publication US10765116B2, “2-[3-(alkylsulfonyl)-2H-indazol-2-yl]-3H-imidazo[4,5-B]pyridine derivatives and similar compounds as pesticides” (BAYER CROPSCIENCE AKTIENGESELLSCHAFT, priority 2016, dated 2020)

How the values were obtained:
Assay type in all cases: in vivo
Phaedon cochleariae = Phaedon cochleariae spray test; details: application rate 100 g/ha, Chinese cabbage leaf discs, larvae, after 7 days
Method: (§1) Solvent: 78.0 parts by weight of acetone • • 1.5 parts by weight of dimethylformamide Emulsifier: alkylaryl polyglycol ether To produce a suitable active ingredient formulation, 1 part by weight of active ingredient is dissolved with the specified parts by weight of solvent and made up to the desired concentration with water containing an emulsifier concentration of 1000 ppm. To produce further test concentrations, the formulation is diluted with emulsifier-containing water. Discs of Chinese cabbage leaves (Brassica pekinensis) are sprayed with an active ingredient formulation of the desired concentration and, after drying, populated with larvae of the mustard beetle (Phaedon cochleariae). After 7 days, the efficacy in % is determined. 100% means that all the beetle larvae have been killed; 0% means that no beetle larvae have been killed.

Spodoptera frugiperda = Spodoptera frugiperda spray test; details: application rate 100 g/ha, maize leaf discs, caterpillars, after 7 days
Method: as §1, with “water. Leaf discs” for “water. Discs”, “of maize (Zea mays)” for “of Chinese cabbage leaves (Brassica pekinensis)”, “with caterpillars” for “with larvae”, “the armyworm (Spodoptera frugiperda).” for “the mustard beetle (Phaedon cochleariae).”, “the caterpillars” for “the beetle larvae”, “no caterpillar has” for “no beetle larvae have”

Myzus persicae [1] = assay: Myzus persicae oral test; details: 120 h, mixed population of green peach aphids, after 5 days, read-out: efficacy; for pest or weed control at 4 ppm: application rate 4 ppm; for pest or weed control at 20 ppm: application rate 20 ppm
Method: Solvent: 100 parts by weight of acetone To produce a suitable active ingredient formulation, 1 part by weight of active ingredient is dissolved with the stated parts by weight of solvent and made up to the desired concentration with water. 50 μl of the active ingredient formulation are transferred into microtitre plates and made up to a final volume of 200 μl with 150 μl of IPL41 insect medium (33%+15% sugar). Subsequently, the plates are sealed with parafilm, which a mixed population of green peach aphids (Myzus persicae) within a second microtitre plate is able to puncture and imbibe the solution through it. After 5 days, the efficacy in % is determined. 100% means that all the aphids have been killed; 0% means that no aphids have been killed.

Lucilia cuprina = Lucilia cuprina test; details: application rate 100 ppm, L1 larvae, minced horsemeat, after 2 days
Method: Solvent: dimethyl sulfoxide To produce a suitable active ingredient formulation, 10 mg of active ingredient are mixed with 0.5 ml of dimethyl sulfoxide, and the concentrate is diluted with water to the desired concentration. About 20 L1 larvae of the Australian sheep blowfly (Lucilia cuprina) are transferred into a test vessel containing minced horsemeat and the active ingredient formulation of the desired concentration. After 2 days, the kill in % is determined. 100% means that all the larvae have been killed; 0% means that no larvae have been killed.

Ctenocephalides felis [2] = assay: Ctenocephalides felis in vitro contact test with adult cat fleas; details: application rate 5 μg/cm^2 (=500 g/ha), coated glass tube, after 48 h
Method: For the coating of the test tubes, 9 mg of active ingredient are first dissolved in 1 ml of acetone p.a. and then diluted to the desired concentration with acetone p.a. 250 μl of the solution are distributed homogeneously on the inner walls and the base of a 25 ml glass tube by turning and rocking on an orbital shaker (rocking rotation at 30 rpm for 2 h). With 900 ppm of active ingredient solution and internal surface area 44.7 cm^2, given homogeneous distribution, an area-based dose of 5 μg/cm^2 is achieved. After the solvent has evaporated off, the glass tubes are populated with 5-10 adult cat fleas (Ctenocephalides felis), sealed with a perforated plastic lid and incubated in a horizontal position at room temperature and ambient humidity. After 48 h, efficacy is determined. To this end, the tubes are stood upright and the fleas are knocked to the base of the tube. Fleas which remain motionless at the base or move in an uncoordinated manner are considered to be dead or moribund. […] 100% efficacy means that all the fleas were dead or moribund. 0% efficacy means that no fleas were harmed.

Ctenocephalides felis [3] = assay: Ctenocephalides felis oral test; details: application rate 100 ppm in citrated cattle blood, adult cat fleas, after 2 days
Method: Solvent: dimethyl sulfoxide To produce a suitable active ingredient formulation, 10 mg of active ingredient are mixed with 0.5 ml of dimethyl sulfoxide. Dilution with citrated cattle blood gives the desired concentration. About 20 unfed adult cat fleas (Ctenocephalides felis) are placed into a chamber which is closed at the top and bottom with gauze. A metal cylinder whose bottom end is closed with parafilm is placed onto the chamber. The cylinder contains the blood/active ingredient formulation, which can be imbibed by the fleas through the parafilm membrane. After 2 days, the kill in % is determined. 100% means that all of the fleas have been killed; 0% means that none of the fleas have been killed.

Myzus persicae [4] = assay: Myzus persicae spray test; details: application rate 100 g/ha, Chinese cabbage leaf discs, all stages, after 5 days
Method: as §1, with “78” for “78.0”, “pekinensis) infested by all stages of the green peach aphid (Myzus persicae)” for “pekinensis)”, “concentration.” for “concentration and, after drying, populated with larvae of the mustard beetle (Phaedon cochleariae).”, “5” for “7”, “aphids” for “beetle larvae”

Musca domestica = Musca domestica test; details: application rate 100 ppm, adult houseflies, after 2 days
Method: Solvent: dimethyl sulfoxide
To produce a suitable active ingredient formulation, 10 mg of active ingredient are mixed with 0.5 ml of dimethyl sulfoxide, and the concentrate is diluted with water to the desired concentration.
Vessels containing a sponge treated with sugar solution and the active ingredient formulation of the desired concentration are populated with 10 adult houseflies (Musca domestica).
After 2 days, the kill in % is determined. 100% means that all of the flies have been killed; 0% means that none of the flies have been killed.

Rhipicephalus sanguineus = Rhipicephalus sanguineus in vitro contact test with adult brown dog ticks; details: application rate 5 μg/cm^2 (=500 g/ha), coated glass tube, after 48 h
Method: For the coating of the test tubes, 9 mg of active ingredient are first dissolved in 1 ml of acetone p.a. and then diluted to the desired concentration with acetone p.a. 250 μl of the solution are distributed homogeneously on the inner walls and the base of a 25 ml glass tube by turning and rocking on an orbital shaker (rocking rotation at 30 rpm for 2 h). With 900 ppm of active ingredient solution and internal surface area 44.7 cm^2, given homogeneous distribution, an area-based dose of 5 μg/cm^2 is achieved. After the solvent has evaporated off, the tubes are populated with 5-10 adult dog ticks (Rhipicephalus sanguineus), sealed with a perforated plastic lid and incubated in a horizontal position in the dark at room temperature and ambient humidity. After 48 h, efficacy is determined. To this end, the ticks are knocked to the base of the tube and incubated on a hotplate at 45-50° C. for not more than 5 min. Ticks which remain motionless on the base or move in such an uncoordinated manner that they are unable to deliberately avoid the heat by climbing upwards are considered to be dead or moribund. […] An efficacy of 100% means that all the ticks were dead or moribund. 0% efficacy means that none of the ticks were harmed.

Structure (SMILES) | efficacy (Phaedon cochleariae) [%] | efficacy (Spodoptera frugiperda) [%] | pest or weed control at 4 ppm (Myzus persicae [1]) [%] | efficacy (kill) (Lucilia cuprina) [%] | efficacy (Ctenocephalides felis [2]) [%] | pest or weed control at 20 ppm (Myzus persicae [1]) [%] | efficacy (kill) (Ctenocephalides felis [3]) [%] | efficacy (Myzus persicae [4]) [%] | efficacy (kill) (Musca domestica) [%] | efficacy (Rhipicephalus sanguineus) [%]
CCS(=O)(=O)c1c2ccc(Cl)cc2nn1-c1nc2cc(C(F)(F)F)cnc2n1C [Example I-1, 2-[6-Chloro-3-(ethylsulfonyl)-2H-indazol-2-yl]-3-methyl-6-(trifluoromethyl)-3H-imidazo[4,5-b]pyridine] | 100 | 100 | 90 | 100 |  |  |  |  |  | 
CCS(=O)(=O)c1c2cc(Cl)ccc2nn1-c1nc2cc(C(F)(F)F)cnc2n1C [Example I-2, 2-[5-Chloro-3-(ethylsulfonyl)-2H-indazol-2-yl]-3-methyl-6-(trifluoromethyl)-3H-imidazo[4,5-b]pyridine] | 100 | 100 | 100 | 100 | 100 | 100 | 80 |  |  | 
CCS(=O)(=O)c1c2ccccc2nn1-c1nc2cc(C(F)(F)F)cnc2n1C [Example I-3] | 100 |  | 90 | 100 |  |  |  | 100 |  | 
CCS(=O)(=O)c1c2cccc(Cl)c2nn1-c1nc2cc(C(F)(F)F)cnc2n1C [Example I-4] | 100 |  | 90 |  |  |  |  |  |  | 
CCS(=O)(=O)c1c2cc(C(F)(F)F)ccc2nn1-c1nc2cc(C(F)(F)F)cnc2n1C [Example I-5] | 100 | 100 | 100 | 100 | 100 |  |  |  |  | 
CCS(=O)(=O)c1c2ccc(C(F)(F)F)cc2nn1-c1nc2cc(C(F)(F)F)cnc2n1C [Example I-6] | 100 | 100 | 100 | 100 | 100 | 100 |  |  | 90 | 
CCS(=O)(=O)c1c2c(nn1-c1nc3cc(C(F)(F)F)cnc3n1C)CCCC2 [Example I-10, 2-[3-(Ethylsulfonyl)-4,5,6,7-tetrahydro-2H-indazol-2-yl]-3-methyl-6-(trifluoromethyl)-3H-imidazo[4,5-b]pyridine] |  |  | 100 | 100 | 100 |  |  | 90 |  | 100
CCS(=O)(=O)c1c2c(nn1-c1nc3cc(C(F)(F)F)cnc3n1C)CC(C)(C)CC2 [Example I-11] |  |  | 100 |  |  |  |  | 90 |  | 
CCS(=O)(=O)c1c2ccc(C(F)(F)F)cc2nn1-c1nc2cc(C(F)(F)F)ncc2n1C [Example I-12] | 100 | 100 | 100 |  |  |  |  |  |  | 
